According to the supplement of paper PMC6580486:

What was measured:
ESX = tested on: ESX
Experimental: (§1)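 60-agent targeted drug screens (Drug Screen V3 on epithelioid sarcoma cultures PCB490-3/4/5, PCB495, EPS cell lines ESX, VA-ES-BJ, FU-EPS-1 and SkMc myoblasts; PPTI screen v2.1 on human UPS PCB197 and canine UPS S1-12). 384-well plates, 72 h, CellTiter-Glo viability; IC50 by Hill curve fit. 10000 nM = no IC50 achieved (top reported value).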

s1-12 = tested on: s1-12 (canine undifferentiated pleomorphic sarcoma culture)
Experimental: as §1

VA-ES-BJ = tested on: VA-ES-BJ
Experimental: as §1

PCB-490-4 = tested on: PCB-490-4 (human epithelioid sarcoma primary culture)
Experimental: as §1

PCB-490-3 = tested on: PCB-490-3 (human epithelioid sarcoma primary culture)
Experimental: as §1

PCB-490-5 = tested on: PCB-490-5 (human epithelioid sarcoma primary culture)
Experimental: as §1

PCB-495 = tested on: PCB-495 (human epithelioid sarcoma primary culture)
Experimental: as §1

SkMc = tested on: SkMc
Experimental: as §1

pcb-00197 = tested on: pcb-00197 (human undifferentiated pleomorphic sarcoma culture)
Experimental: as §1

FU-EPS-1 = tested on: FU-EPS-1
Experimental: as §1

Row | SMILES | IC50 cell viability (ESX) [µM] | IC50 cell viability (s1-12) [µM] | IC50 cell viability (VA-ES-BJ) [µM] | IC50 cell viability (PCB-490-4) [µM] | IC50 cell viability (PCB-490-3) [µM] | IC50 cell viability (PCB-490-5) [µM] | IC50 cell viability (PCB-495) [µM] | IC50 cell viability (SkMc) [µM] | IC50 cell viability (pcb-00197) [µM] | IC50 cell viability (FU-EPS-1) [µM]
1 | C[C@]1(O)C[C@@H](c2nc(-c3ccc4ccc(-c5ccccc5)nc4c3)c3c(N)nccn32)C1 [OSI-906] | 0.02 | 1.07 | > 10 | > 10 | > 10 | > 10 | > 10 | > 10 | > 10 | > 10
2 | COc1cc2nc(N3CCCN(C)CC3)nc(NC3CCN(Cc4ccccc4)CC3)c2cc1OC | 0.2 | 1.72 | 6.57 | 1.82 | 3.14 | 6.69 | 1.38 | 0.15 | 6.05 | 1.01
3 | CCc1cnn2c(NCc3ccc[n+]([O-])c3)cc(N3CCCC[C@H]3CCO)nc12 [Dinaciclib] | 0.01 | 0.01 | 0.01 | 0.1 | > 10 | > 10 | 0.01 | > 10 | > 10 | > 10
4 | Nc1nc2c(ncn2COC(CO)CO)c(=O)[nH]1 [Ganciclovir] | > 10 | – | > 10 | > 10 | > 10 | > 10 | > 10 | > 10 | – | 0.02
5 | Clc1ccc(NN=C(c2ccccc2)c2ccccn2)nc1 [JIB-04] | 0.6 | – | 1.69 | 3.73 | > 10 | 1.62 | 1.14 | 1.41 | – | 2.4
6 | CC(=O)c1c(C)c2cnc(Nc3ccc(N4CCNCC4)cn3)nc2n(C2CCCC2)c1=O | > 10 | – | > 10 | > 10 | > 10 | > 10 | > 10 | > 10 | – | > 10
7 | CC(C)(C)Cn1c(N)nc2ccc(-c3[nH]c(C(C)(C)C)nc3-c3ccc(F)cc3)nc21 | 5.07 | – | > 10 | > 10 | > 10 | > 10 | > 10 | > 10 | – | > 10
8 | Cn1c(=O)n(-c2ccc(C(C)(C)C#N)cc2)c2c3cc(-c4cnc5ccccc5c4)ccc3ncc21 [BEZ235] | 0.02 | – | 0.08 | 0.26 | 1.36 | 0.2 | 0.43 | 0.37 | – | 0.14
9 | CC(C)(C(=O)NCC(F)(F)C(F)(F)F)C(=O)N[C@@H]1C(=O)Nc2ccccc2-c2ccccc21 | > 10 | > 10 | > 10 | > 10 | > 10 | > 10 | > 10 | 3.76 | > 10 | > 10
10 | CO[C@@H]1[C@H](N(C)C(=O)c2ccccc2)C[C@H]2O[C@]1(C)n1c3ccccc3c3c4c(c5c6ccccc6n2c5c31)C(=O)NC4 [PKC412] | 6.4 | – | 1.8 | 1.25 | > 10 | 1.73 | 1.36 | > 10 | – | > 10
11 | C=CCn1c(=O)c2cnc(Nc3ccc(N4CCN(C)CC4)cc3)nc2n1-c1cccc(C(C)(C)O)n1 [MK-1775] | 0.17 | – | 0.3 | > 10 | > 10 | > 10 | > 10 | 0.16 | – | 1.01
12 | COCC1(CO)C(=O)C2CCN1CC2 (stereo not drawn) [APR-246] | 0.13 | – | > 10 | 0.12 | > 10 | > 10 | > 10 | > 10 | – | > 10
13 | Nc1ccccc1NC(=O)c1ccc(CNC(=O)OCc2cccnc2)cc1 [Entinostat] | > 10 | 0.92 | 1.18 | > 10 | > 10 | > 10 | > 10 | > 10 | > 10 | 2.69
14 | CCOc1cc(C(C)(C)C)ccc1C1=N[C@@](C)(c2ccc(Cl)cc2)[C@@](C)(c2ccc(Cl)cc2)N1C(=O)N1CCN(CCCS(C)(=O)=O)CC1 | > 10 | > 10 | > 10 | > 10 | > 10 | > 10 | > 10 | > 10 | > 10 | > 10
15 | O=C(O)c1ccc2c(c1)nc(Nc1cccc(Cl)c1)c1ccncc12 [CX-4945] | > 10 | – | > 10 | 6.52 | > 10 | 1.2 | > 10 | 1.14 | – | 0.14
16 | CC(C)n1c(/C=C/C(O)CC(O)CC(=O)O)c(-c2ccc(F)cc2)c2ccccc21 (stereo not drawn) [Fluvastatin] | 2.5 | – | 0.1 | 4.28 | 1.32 | 1.32 | 0.08 | 8.73 | – | 1.48
17 | Cc1ccc(-c2cc(C(F)(F)F)nn2-c2ccc(S(N)(=O)=O)cc2)cc1 [Celecoxib] | > 10 | – | > 10 | > 10 | > 10 | > 10 | > 10 | > 10 | – | > 10
